# Target: human HPK1 (MAP4K1) (Homo sapiens (Human), UniProt Q92918)
# Experiment: HPK1 IC50 Assay (TR-FRET peptide phosphorylation)
# Format: biochemical
# Conditions: 0.15 nM HPK1, 10 μM ATP, 1 μM STK S1 peptide substrate; geometric mean
# Method in brief: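 Pre-activated, dually phosphorylated baculovirus-expressed HPK1 kinase domain (0.15 nM) preincubated 15 min with compound, then reacted 3 h at 25° C with 10 μM ATP and 1 μM STK S1 peptide in BES pH 7.0 buffer. Phosphopeptide read by TR-FRET (665/620 nm); four-parameter fit, geometric-mean IC50.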
# Sequence of human HPK1 (MAP4K1) (Q92918 17-274): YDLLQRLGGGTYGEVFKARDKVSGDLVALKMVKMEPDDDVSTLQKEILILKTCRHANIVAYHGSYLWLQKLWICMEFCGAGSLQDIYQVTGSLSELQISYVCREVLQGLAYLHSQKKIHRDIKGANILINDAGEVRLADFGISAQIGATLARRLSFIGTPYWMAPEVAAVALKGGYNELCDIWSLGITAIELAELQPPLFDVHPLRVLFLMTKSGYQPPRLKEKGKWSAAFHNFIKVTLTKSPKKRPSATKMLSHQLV
row,IC50,Structure (SMILES)
1,0.03 nM,"Cc1c(C(=O)NCC(F)F)cc(Nc2nc(-c3ccc4c(c3)N([C@H]3C[C@@](C)(N5CCCCC5)C3)C(=O)C4(C)C)cc3ncn(C(C)C)c23)c(F)c1F [Example 268, N-(2,2-difluoroethyl)-5-((6-(3,3-dimethyl-1-((1s,3s)-3-methyl-3-(piperidin-1-yl)cyclobutyl)-2-oxoindolin-6-yl)-3-isopropyl-3H-imidazo[4,5-c]pyridin-4-yl)amino)-3,4-difluoro-2-methylbenzamide]"
2,0.07 nM,"Cc1c(C(=O)NCC(F)F)cc(Nc2nc(-c3cc4c(nc3F)C(C)(C)C(=O)N4[C@H]3C[C@@](C)(N4CCCC5(CC5)C4)C3)cc3ncn(C(C)C)c23)c(F)c1F [Example 277, N-(2,2-difluoroethyl)-3,4-difluoro-5-((6-(5-fluoro-3,3-dimethyl-1-((1s,3s)-3-methyl-3-(5-azaspiro[2.5]octan-5-yl)cyclobutyl)-2-oxo-2,3-dihydro-1H-pyrrolo[3,2-b]pyridin-6-yl)-3-isopropyl-3H-imidazo[4,5-c]pyridin-4-yl)amino)-2-methylbenzamide]"

# Same assay, conditions: recombinant HPK1 kinase domain 0.15 nM, 10 μM ATP, 1 μM STK S1 peptide; geometric mean of multiple experiments
row,IC50,Structure (SMILES)
1,0.05 nM,"CC(C)n1cnc2cc(-c3cnc4c(c3)N([C@H]3C[C@@](C)(N5C[C@H]6CC[C@@H]5C6)C3)C(=O)C4(C)C)nc(Nc3cc(C(=O)NC4(C(F)F)CC4)c(Cl)c(F)c3F)c21 [Example 263, 5-((6-(1-((1S,3s)-3-((1R,4S)-2-azabicyclo[2.2.1]heptan-2-yl)-3-methylcyclobutyl)-3,3-dimethyl-2-oxo-2,3-dihydro-1H-pyrrolo[3,2-b]pyridin-6-yl)-3-isopropyl-3H-imidazo[4,5-c]pyridin-4-yl)amino)-2-chloro-N-(1-(difluoromethyl)cyclopropyl)-3,4-difluorobenzamide]"
2,0.1 nM,"CC(C)n1cnc2cc(-c3cnc4c(c3)N([C@H]3C[C@@](C)(N5CCOCC5)C3)C(=O)C4(C)C)nc(Nc3cc(C(=O)NC4(C(F)F)CC4)c(Cl)c(F)c3F)c21 [Example 199, 2-Chloro-N-(1-(difluoromethyl)cyclopropyl)-5-((6-(3,3-dimethyl-1-((1s,3s)-3-methyl-3-morpholinocyclobutyl)-2-oxo-2,3-dihydro-1H-pyrrolo[3,2-b]pyridin-6-yl)-3-isopropyl-3H-imidazo[4,5-c]pyridin-4-yl)amino)-3,4-difluorobenzamide]"
3,0.07 nM,CNC(=O)c1cc(Nc2nc(-c3ccc4c(c3)N([C@H]3C[C@@H](N5CCCCC5)C3)C(=O)C43CCN(C(=O)C45CC(C4)C5)CC3)cc3ncn(C4CC4)c23)ccc1Cl [Example 41]
4,0.04 nM,"CCNC(=O)c1cc(Nc2nc(-c3ccc4c(c3)N([C@H]3C[C@@](C)(N5CCCCC5)C3)C(=O)C4(C)C)cc3ncn(C(C)C)c23)c(F)c(F)c1C [Example 239, 5-((6-(3,3-Dimethyl-1-((1s,3s)-3-methyl-3-(piperidin-1-yl)cyclobutyl)-2-oxoindolin-6-yl)-3-isopropyl-3H-imidazo[4,5-c]pyridin-4-yl)amino)-N-ethyl-3,4-difluoro-2-methylbenzamide]"
5,0.9 nM,CCn1cnc2cc(-c3ccc4c(c3)N([C@H]3C[C@@H](NC(=O)C(C)(C)C)C3)C(=O)C4(C)C)nc(Nc3ccc(C)c(C(N)=O)c3)c21 [Example 133]
6,0.1 nM,CNC(=O)c1cc(Nc2nc(-c3ccc4c(c3)N([C@H]3C[C@@H](N5CC6CCC(C5)O6)C3)C(=O)C4(C)C)cc3ncn(C(C)C)c23)c(F)cc1C [Example 10]
7,0.1 nM,Cc1ccc(Nc2nc(-c3ccc4c(c3)N([C@H]3C[C@@H](N5CCC[C@@H](O)C5)C3)C(=O)C4(C)C)cc3ncn(C4CC4)c23)cc1C(N)=O [Example 37]
8,0.4 nM,CNC(=O)c1cc(Nc2nc(-c3ccc4c(c3)N([C@H]3C[C@@H](N5CC6C(C5)C6(F)F)C3)C(=O)C4(C)C)cc3ncn(C(C)C)c23)ccc1C (some centres unmarked) [Example 7]
9,0.1 nM,CC[C@H](C)n1cnc2cc(-c3ccc4c(c3)N([C@H]3C[C@@H](N5CCCCC5)C3)C(=O)C4(C)C)nc(Nc3ccc(C)c(C(=O)NC)c3)c21 [Example 128]
10,0.1 nM,CNC(=O)c1cc(Nc2nc(-c3ccc4c(c3)N([C@H]3C[C@@H](N5CCCC6(C5)CC6(F)F)C3)C(=O)C43CCN(C(C)=O)CC3)cc3ncn(C4CC4)c23)ccc1C (some centres unmarked) [Example 163]
11,0.2 nM,CNC(=O)c1cc(Nc2nc(-c3ccc4c(c3)N([C@H]3C[C@@H](N5CC[C@H](F)C5)C3)C(=O)C4(C)C)cc3ncn(C(C)C)c23)ccc1C [Example 5]
12,0.2 nM,CCNC(=O)c1cc(Nc2nc(-c3ccc4c(c3)N([C@H]3C[C@@H](N5CCCCC5)C3)C(=O)C43CCN(C(=O)CC)CC3)cc3ncn(C(C)C)c23)c(F)cc1C [Example 60]
13,0.6 nM,CNC(=O)c1cc(Oc2nc(-c3ccc4c(c3)N([C@H]3C[C@@H](N5CCCCC5)C3)C(=O)C4(C)C)cc3ncn(C4CC4)c23)ccc1C [Example 34]
14,0.09 nM,CNC(=O)c1cc(Nc2nc(-c3ccc4c(c3)N([C@H]3C[C@@H](N5CCCCC5)C3)C(=O)C4(C)C)cc3ncn(C(C)C)c23)c(F)cc1Cl [Example 118]
15,0.4 nM,CNC(=O)c1ccc(F)c(Nc2nc(-c3ccc4c(c3)N([C@H]3C[C@@H](N5CCCCC5)C3)C(=O)C43CCN(C(C)=O)CC3)cc3ncn(C4CC4)c23)c1 [Example 97]
16,0.1 nM,CNC(=O)c1cc(Nc2nc(-c3ccc4c(c3)N([C@H]3C[C@@H](NCC(C)(C)O)C3)C(=O)C4(C)C)cc3ncn(C(C)C)c23)c(F)cc1C [Example 15]
17,0.3 nM,COCC1(NC(=O)c2cc(Nc3nc(-c4ccc5c(c4)N([C@H]4C[C@@H](N6CCCCC6)C4)C(=O)C54CCN(C(C)=O)CC4)cc4ncn(C(C)C)c34)c(F)cc2C)CC1 [Example 90]
18,0.07 nM,"Cc1c(C(=O)NC2(C(F)F)CC2)cc(Nc2nc(-c3cnc4c(c3)N([C@H]3C[C@@](C)(N5CCC6CC5CO6)C3)C(=O)C4(C)C)cc3ncn(C(C)C)c23)c(F)c1F (mixture of isomers) [Example 190, 5-((6-(1-((1s,3s)-3-(6-Oxa-2-azabicyclo[3.2.1]octan-2-yl)-3-methylcyclobutyl)-3,3-dimethyl-2-oxo-2,3-dihydro-1H-pyrrolo[3,2-b]pyridin-6-yl)-3-isopropyl-3H-imidazo[4,5-c]pyridin-4-yl)amino)-N-(1-(difluoromethyl)cyclopropyl)-3,4-difluoro-2-methylbenzamide]"
19,0.1 nM,CNC(=O)c1cc(Nc2nc(-c3ccc4c(c3)N([C@H]3C[C@@H](N5CCCCC5)C3)C(=O)C43CCN(S(C)(=O)=O)CC3)cc3ncn(C4CC4)c23)ccc1C [Example 168]
20,0.01 nM,"CC(C)n1cnc2cc(-c3cnc4c(c3)N([C@H]3C[C@@](C)(N5CCCOCC5)C3)C(=O)C4(C)C)nc(Nc3cc(C(=O)NC4(C(F)F)CC4)c(Cl)c(F)c3F)c21 [Example 198, 2-Chloro-N-(1-(difluoromethyl)cyclopropyl)-5-((6-(3,3-dimethyl-1-((1s,3s)-3-methyl-3-(1,4-oxazepan-4-yl)cyclobutyl)-2-oxo-2,3-dihydro-1H-pyrrolo[3,2-b]pyridin-6-yl)-3-isopropyl-3H-imidazo[4,5-c]pyridin-4-yl)amino)-3,4-difluorobenzamide]"
21,0.2 nM,"CC(C)n1cnc2cc(-c3cnc4c(c3)N([C@H]3C[C@@](C)(N5CCC[C@@H](F)C5)C3)C(=O)C4(C)C)nc(Nc3cc(C(=O)NC4(C(F)F)CC4)c(Cl)c(F)c3F)c21 [Example 201, 2-Chloro-N-(1-(difluoromethyl)cyclopropyl)-3,4-difluoro-5-((6-(1-((1S,3s)-3-((R)-3-fluoropiperidin-1-yl)-3-methylcyclobutyl)-3,3-dimethyl-2-oxo-2,3-dihydro-1H-pyrrolo[3,2-b]pyridin-6-yl)-3-isopropyl-3H-imidazo[4,5-c]pyridin-4-yl)amino)benzamide]"
22,0.1 nM,CC[C@H](C)n1cnc2cc(-c3ccc4c(c3)N([C@H]3C[C@@H](N5CCCCC5)C3)C(=O)C43CCN(C(=O)OC)CC3)nc(Nc3ccc(C)c(C(=O)NC)c3)c21 [Example 169]
23,0.1 nM,CNC(=O)c1cc(Nc2nc(-c3ccc4c(c3)N([C@H]3C[C@@H](N5CCCCC5)C3)C(=O)C4(C)C)cc3ncn(C(C)C)c23)c(F)cc1C [Example 175]
24,0.09 nM,"Cc1c(C(=O)NC(C)C)cc(Nc2nc(-c3cnc4c(c3)N([C@H]3C[C@@](C)(N5CCCCC5)C3)C(=O)C4(C)C)cc3ncn(C(C)C)c23)c(F)c1F [Example 220, 5-((6-(3,3-Dimethyl-1-((1s,3s)-3-methyl-3-(piperidin-1-yl)cyclobutyl)-2-oxo-2,3-dihydro-1H-pyrrolo[3,2-b]pyridin-6-yl)-3-isopropyl-3H-imidazo[4,5-c]pyridin-4-yl)amino)-3,4-difluoro-N-isopropyl-2-methylbenzamide]"
25,0.05 nM,"Cc1ccc(Nc2nc(-c3ccc4c(c3)N([C@H]3C[C@@](C)(N5CCCCC5)C3)C(=O)C4(C)C)cc3ncn(C4CC4)c23)cc1C(N)=O [Example 183, 5-((3-cyclopropyl-6-(3,3-dimethyl-1-((1s,3s)-3-methyl-3-(piperidin-1-yl)cyclobutyl)-2-oxoindolin-6-yl)-3H-imidazo[4,5-c]pyridin-4-yl)amino)-2-methylbenzamide]"
26,0.2 nM,Cc1cc(F)c(Nc2nc(-c3ccc4c(c3)N([C@H]3C[C@@H](N5CCCCC5)C3)C(=O)C4(C)C)cc3ncn(C(C)C)c23)cc1C(=O)NC(C)C [Example 176]
27,0.07 nM,CNC(=O)c1cc(Nc2nc(-c3ccc4c(c3)N([C@H]3C[C@@H](N5CCC[C@@H](F)C5)C3)C(=O)C4(C)C)cc3ncn(C(C)C)c23)ccc1C [Example 106]

row,Structure (SMILES),IC50
1,CNC(=O)c1cc(Nc2nc(-c3ccc4c(c3)N([C@H]3C[C@@H](N5C6COCC5C6)C3)C(=O)C4(C)C)cc3ncn(C(C)C)c23)ccc1C [Example 6],0.1 nM
2,CCNC(=O)c1cc(Nc2nc(-c3ccc4c(c3)N([C@H]3C[C@@H](N5CCCCC5)C3)C(=O)C43CCN(C4COC4)CC3)cc3ncn(C(C)C)c23)c(F)cc1C [Example 69],0.1 nM
3,Cc1cc(F)c(Nc2nc(-c3ccc4c(c3)N([C@H]3C[C@@H](N5CCC(C)(C)C5)C3)C(=O)C43CCN(C4COC4)CC3)cc3ncn(C(C)C)c23)cc1C(=O)NC(C)C [Example 100],0.3 nM

# — patent US11203591B2, “Substituted 6-azabenzimidazole compounds” (Gilead Sciences, Inc., priority 2018, dated 2021)
